Test results published in US12410113B2, “Sandalwood-type fragrance compounds” (SYMRISE AG, priority 2019, dated 2025).

Assay: Odor detection threshold (ODT) by olfactometer TO8 and a panel of experts according to EN 13725
Settings: for ODT (exp.) (−log): odor detection threshold as −log; for ODT (exp.) / ODT* (exp.) (ppm (v/v)): odor detection threshold, olfactometer TO8, expert panel, EN 13725
Procedure: The ODT was measured by an olfactometer TO8 and a panel of experts according to standard EN 13725.

Compound: C=C(CO)CCC1CC=C(C)C1(C)C (stereo not shown) [Compound A, 2-methylene-4-(2,2,3-trimethylcyclopent-3-en-1-yl)butan-1-ol]
- factor by which threshold value is lower than Brahmanol (in comparison with Brahmanol): about 35
- ODT (exp.) (−log): 8.36E+00
- ODT (exp.): 4.34 ng/L
- ODT* (exp.) (ppm (v/v)): 5.37E−04 ppm (v/v)

Compound: CC1=CCC(CCC(C)CO)C1(C)C (stereo not shown) [Brahmanol, 2-methyl-4-(2′,2′,3′-trimethyl-3′-cyclopenten-1′-yl)-butan-1-ol, reference compound]
- ODT (exp.) (−log): 6.85E+00
- ODT (exp.): 141.22 ng/L
- ODT* (exp.) (ppm (v/v)): 1.73E−02 ppm (v/v)
